According to ChEMBL document CHEMBL4190274, “A Cyclopeptide and a Tetrahydroisoquinoline Alkaloid from Ophiorrhiza nutans” (J Nat Prod, 2017):

What was measured:
Format in all cases: functional, cell-based
HCT-116 = assay: Cytotoxicity against human HCT116 cells
HT-29 = assay: Cytotoxicity against human HT-29 cells
A549 = assay: Cytotoxicity against human A549 cells

Measured: IC50

C[N+](C)(C)[C@@H](Cc1ccc(O)cc1)C(=O)N[C@@H]1C(=O)N[C@@H](Cc2ccccc2)C(=O)N[C@H](C(=O)[O-])Cc2ccc(cc2)O[C@@H]1c1ccccc1
> 15 µM: HCT-116 | HT-29 | A549
